Experimental data reported in US10336693B2 (priority 2015, dated 2019).

How the values were obtained:
[1] = tested on: virus showing oseltamivir resistance due to the H275Y mutation; assay type: binding, influenza virus
[2] = tested on: neuraminidase (NA) of Influenza A/Korea/2785/2009 (H275Y mutation); assay type: biochemical, Influenza A virus
[3] = tested on: neuraminidase site of oseltamivir-resistant virus (mutant type); parameters: species or system influenza virus

Row | Compound | affinity for H275Y oseltamivir-resistant virus relative to oseltamivir sensitive virus [1] | inhibition of NA activity of mutant-type virus compared with wild-type virus [2] | affinity for mutant type relative to wild type [3]
1 | CCC(CC)O[C@@H]1C=C(C(=O)OCCCCCCN)C[C@H](N)[C@H]1NC(C)=O [oseltamivir hexylamine] | about 1000 fold | inhibited the NA activity of the mutant-type virus (H275Y mutation) more significantly than the NA activity of the wild-type virus | 
2 | CCC(CC)O[C@@H]1C=C(C(=O)OCCCCCCS)C[C@H](N)[C@H]1NC(C)=O [oseltamivir hexylthiol] | about 1000 fold | inhibited the NA activity of the mutant-type virus (H275Y mutation) more significantly than the NA activity of the wild-type virus | about 250 fold
